Measurements: ChEMBL document CHEMBL1201862, “PubChem BioAssay data set” (2004)
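Where inhibition never reached the appropriate level, the endpoint shown equals the highest concentration tested. Otherwise, values were interpolated linearly from a five-concentration, 48-hour dose response in 96-well plates. GI50: concentration for 50% inhibition of growth.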 Calls of active or inactive are those of the source. No stated cut-off is given here; in the data, active = GI50 up to about 1.1 µM and inactive = higher.

Legend:
Experiment in all cases: DTP human tumour cell line panel, 48 h
PC-3 = test system: PC-3
SF-268 = test system: SF-268
UACC-62 = test system: UACC-62
OVCAR-3 = test system: OVCAR-3
SN12C = test system: SN12C
CCRF-CEM = test system: CCRF-CEM
HOP-62 = test system: HOP-62
T47D = test system: T47D
MOLT-4 = test system: MOLT-4
SK-MEL-2 = test system: SK-MEL-2
MDA-N = test system: MDA-N
SF-539 = test system: SF-539
Malme-3M = test system: Malme-3M
RXF 393 = test system: RXF 393
SK-OV-3 = test system: SK-OV-3
786-0 = test system: 786-0
NCI/ADR-RES = test system: NCI/ADR-RES
COLO 205 = test system: COLO 205

SMILES | GI50 (PC-3) | GI50 (SF-268) | GI50 (UACC-62) | GI50 (OVCAR-3) | GI50 (SN12C) | GI50 (CCRF-CEM) | GI50 (HOP-62) | GI50 (T47D) | GI50 (MOLT-4) | GI50 (SK-MEL-2) | GI50 (MDA-N) | GI50 (SF-539) | GI50 (Malme-3M) | GI50 (RXF 393) | GI50 (SK-OV-3) | GI50 (786-0) | GI50 (NCI/ADR-RES) | GI50 (COLO 205)
CC1CCCCNC1=S (stereo unspecified) | > 10 µM (inactive) | > 10 µM (inactive) | > 10 µM (inactive) | > 10 µM (inactive) | > 10 µM (inactive) | > 10 µM (inactive) | > 10 µM (inactive) | > 10 µM (inactive) | > 10 µM (inactive) | > 10 µM (inactive) | > 10 µM (inactive) | > 10 µM (inactive) | > 10 µM (inactive) | > 10 µM (inactive) | > 10 µM (inactive) |  |  | 
Cn1c2ccccc2n2c(=O)c3cc([N+](=O)[O-])ccc3c(C#N)c12 | > 100 µM (inactive) | > 100 µM (inactive) | > 100 µM (inactive) | > 100 µM (inactive) |  | > 100 µM (inactive) | 27.5 µM (inactive) | > 100 µM (inactive) | > 100 µM (inactive) | > 100 µM (inactive) | > 100 µM (inactive) | 50.4 µM (inactive) |  | > 100 µM (inactive) | > 100 µM (inactive) | 22.3 µM (inactive) | > 100 µM (inactive) | > 100 µM (inactive)
NC(CCCCNC(=O)C(Cc1ccccc1)NC(=O)OCc1ccccc1)C(=O)NC(CCCCNC(=O)C(Cc1ccccc1)NC(=O)OCc1ccccc1)C(=O)NC(CCCCNC(=O)C(Cc1ccccc1)NC(=O)OCc1ccccc1)C(=O)NC(CCCCNC(=O)C(Cc1ccccc1)NC(=O)OCc1ccccc1)C(=O)NC(CCCCNC(=O)C(Cc1ccccc1)NC(=O)OCc1ccccc1)C(=O)NC(CCCCNC(=O)C(Cc1ccccc1)NC(=O)OCc1ccccc1)C(=O)O (stereo unspecified) | > 100 µM (inactive) | > 100 µM (inactive) | > 100 µM (inactive) | > 100 µM (inactive) | > 100 µM (inactive) | > 100 µM (inactive) | > 100 µM (inactive) | > 100 µM (inactive) | > 100 µM (inactive) | > 100 µM (inactive) | > 100 µM (inactive) |  | > 100 µM (inactive) |  |  | > 100 µM (inactive) |  | 
Cc1nc2nnc(CCCCCCCCc3nnc4nc(C)[nH]n34)n2[nH]1 | > 100 µM (inactive) | > 100 µM (inactive) |  | > 100 µM (inactive) | > 100 µM (inactive) | > 100 µM (inactive) | > 100 µM (inactive) |  | > 100 µM (inactive) | > 100 µM (inactive) | > 100 µM (inactive) | > 100 µM (inactive) | > 100 µM (inactive) | > 100 µM (inactive) | > 100 µM (inactive) | > 100 µM (inactive) | > 100 µM (inactive) | > 100 µM (inactive)
C=C1CC2CCCC12C=O (stereo unspecified) | > 10 µM (inactive) | > 10 µM (inactive) | > 10 µM (inactive) | > 10 µM (inactive) | > 10 µM (inactive) | > 10 µM (inactive) | > 10 µM (inactive) | > 10 µM (inactive) | > 10 µM (inactive) |  | > 10 µM (inactive) | > 10 µM (inactive) | > 10 µM (inactive) |  | > 10 µM (inactive) | > 10 µM (inactive) | > 10 µM (inactive) | > 10 µM (inactive)
COC(OC)(c1ccccc1)C(Br)Br | > 100 µM (inactive) | 42.6 µM (inactive) | 55.1 µM (inactive) | 48.3 µM (inactive) | > 100 µM (inactive) | 13.6 µM (inactive) | > 100 µM (inactive) | 39.7 µM (inactive) | 16.1 µM (inactive) | > 100 µM (inactive) | 31.7 µM (inactive) | > 10 µM (inactive) | 16.7 µM (inactive) |  | > 100 µM (inactive) | 23.2 µM (inactive) | 51.8 µM (inactive) | 17.3 µM (inactive)
CCOC(=O)CC[C@H](NC(=O)N[C@H](C)c1ccccc1)C(=O)OCC | 84.7 µM (inactive) |  | 16.1 µM (inactive) | 18 µM (inactive) | 40.6 µM (inactive) | 22.6 µM (inactive) | > 100 µM (inactive) |  | 20.1 µM (inactive) | 23.4 µM (inactive) | 18.6 µM (inactive) | 14.7 µM (inactive) |  |  | > 100 µM (inactive) | 37.9 µM (inactive) | 22.8 µM (inactive) | 18.7 µM (inactive)
CN(CCNC(=O)c1c[nH]c2c1Cc1ccccc1-2)CCNC(=O)c1c[nH]c2c1Cc1ccccc1-2 | 18.2 µM (inactive) | 32 µM (inactive) | 18 µM (inactive) | 21 µM (inactive) | 66.4 µM (inactive) |  | 26.4 µM (inactive) |  | 24.7 µM (inactive) | 20.6 µM (inactive) | 15.2 µM (inactive) | 19.5 µM (inactive) | 82.8 µM (inactive) | 30.5 µM (inactive) |  | 20.6 µM (inactive) | 29.4 µM (inactive) | 35 µM (inactive)
O=C1CC(CC(O)[C@@H]2CCCC[C@@H]2O)CC(=O)N1c1ccccc1 (stereo partly specified) | > 100 µM (inactive) | > 100 µM (inactive) | > 100 µM (inactive) | > 100 µM (inactive) | > 100 µM (inactive) | > 100 µM (inactive) | > 100 µM (inactive) |  | > 100 µM (inactive) |  | > 100 µM (inactive) | > 100 µM (inactive) | > 100 µM (inactive) | > 100 µM (inactive) |  | > 100 µM (inactive) | > 100 µM (inactive) | 
NNC(=O)c1c(SCc2ccccc2)nc2c3ccccc3ccn12 | 17.1 µM (inactive) | 20.3 µM (inactive) | 10.2 µM (inactive) | 2.92 µM (inactive) | 17 µM (inactive) | 2.92 µM (inactive) | 10.2 µM (inactive) | 18.1 µM (inactive) | 10.9 µM (inactive) | 28.3 µM (inactive) |  | 15.9 µM (inactive) |  | 15.2 µM (inactive) | 27.1 µM (inactive) |  | 26.5 µM (inactive) | 23.9 µM (inactive)
c1csc(-c2ccsc2-c2ccsc2)c1 | 41.3 µM (inactive) | 92.5 µM (inactive) | > 100 µM (inactive) | 16.8 µM (inactive) | > 100 µM (inactive) | 45.2 µM (inactive) | > 100 µM (inactive) | > 100 µM (inactive) | 28.4 µM (inactive) | 17.5 µM (inactive) | 73.1 µM (inactive) | > 100 µM (inactive) |  | 25.6 µM (inactive) | > 100 µM (inactive) | 97.3 µM (inactive) | 76 µM (inactive) | 73.8 µM (inactive)
CCC1CN(C(=O)c2ccccc2)C(Cc2c[nH]c3ccccc23)C(=O)C1CC(=O)OC (stereo unspecified) | 46 µM (inactive) | > 100 µM (inactive) | 32.1 µM (inactive) |  | > 100 µM (inactive) | 51.4 µM (inactive) | 39 µM (inactive) | > 100 µM (inactive) | 27.7 µM (inactive) | > 100 µM (inactive) |  | > 100 µM (inactive) | 55.6 µM (inactive) | > 100 µM (inactive) | > 100 µM (inactive) |  | 86.7 µM (inactive) | > 100 µM (inactive)
O=C(OCc1ccccc1)C(Cc1ccc(OCc2ccccc2)cn1)NC(=O)C(F)(F)F (stereo unspecified) | > 100 µM (inactive) | 98.2 µM (inactive) |  | 71.3 µM (inactive) | > 100 µM (inactive) | > 10 µM (inactive) | > 100 µM (inactive) |  | 33.7 µM (inactive) |  | > 100 µM (inactive) | > 100 µM (inactive) | > 100 µM (inactive) | > 100 µM (inactive) |  | > 100 µM (inactive) | > 100 µM (inactive) | 27.4 µM (inactive)
COc1ccccc1CNCc1nc2ccccc2[nH]1 | > 100 µM (inactive) | > 100 µM (inactive) | > 100 µM (inactive) | > 100 µM (inactive) | > 100 µM (inactive) | > 100 µM (inactive) | > 100 µM (inactive) | > 100 µM (inactive) | > 100 µM (inactive) | > 100 µM (inactive) | > 100 µM (inactive) | > 100 µM (inactive) |  | > 100 µM (inactive) |  | > 100 µM (inactive) | > 100 µM (inactive) | > 100 µM (inactive)
Cc1ccc(S(=O)(=O)N(CCN)c2cc3c4c(c2)Oc2cccc5c2C4c2c(cccc2O3)O5)cc1 | 18.7 µM (inactive) | 14.4 µM (inactive) | 47.3 µM (inactive) | 20 µM (inactive) | 34 µM (inactive) | 22.7 µM (inactive) | 15.4 µM (inactive) |  | 18.5 µM (inactive) | 22.8 µM (inactive) | 23.8 µM (inactive) | 18.8 µM (inactive) | 10.5 µM (inactive) |  | 27 µM (inactive) | 16.6 µM (inactive) | 10.7 µM (inactive) | 22.6 µM (inactive)
C#CCNC(CS)C(=O)O (stereo unspecified) | > 100 µM (inactive) | > 100 µM (inactive) | > 100 µM (inactive) | > 100 µM (inactive) |  | > 100 µM (inactive) | > 100 µM (inactive) | > 100 µM (inactive) | > 100 µM (inactive) | > 100 µM (inactive) |  |  | > 100 µM (inactive) | > 100 µM (inactive) | > 100 µM (inactive) | > 100 µM (inactive) | > 100 µM (inactive) | > 100 µM (inactive)
CCC(C)[C@@H](NC1=C(Cl)C(=O)c2c(O)ccc(O)c2C1=O)C(=O)OC (stereo partly specified) | 3.86 µM (inactive) | 3.7 µM (inactive) | 3.37 µM (inactive) | 2.79 µM (inactive) | 3.66 µM (inactive) | 0.579 µM (active) | 3.51 µM (inactive) | > 10 µM (inactive) | 1.47 µM (inactive) | 4.2 µM (inactive) | 3.56 µM (inactive) | 4.08 µM (inactive) | 1.8 µM (inactive) |  | 6.68 µM (inactive) | 2.43 µM (inactive) | 2.52 µM (inactive) | 2.13 µM (inactive)
